Data taken from publication PMC2254147, “Novel Triazine JPC-2067-B Inhibits Toxoplasma gondii In Vitro and In Vivo” (PLoS Neglected Tropical Diseases, 2008).
Entries after “also recorded” stand apart in the source; their conditions may differ. Where two headings read alike, the source gives them in different places.

Assays:
T. gondii = experiment: Cidal test: cultures kept 52 days after removing compound on the 4th day; assay type: cell-based, Toxoplasma gondii; conditions: exposed 4 days, compound removed, cultured 52 days
Description: In separate experiments, to determine whether JPC-2067-B would be cidal for T. gondii, cultures were maintained for 52 days after removing JPC-2067-B on the 4th day of culture.

PfDHFR = PfDHFR (Plasmodium falciparum, UniProt Q8I1R6); experiment: Plate reader DHFR assay, recombinant P. falciparum DHFR; assay type: biochemical
Sequence of PfDHFR (Q8I1R6 entry or part of it): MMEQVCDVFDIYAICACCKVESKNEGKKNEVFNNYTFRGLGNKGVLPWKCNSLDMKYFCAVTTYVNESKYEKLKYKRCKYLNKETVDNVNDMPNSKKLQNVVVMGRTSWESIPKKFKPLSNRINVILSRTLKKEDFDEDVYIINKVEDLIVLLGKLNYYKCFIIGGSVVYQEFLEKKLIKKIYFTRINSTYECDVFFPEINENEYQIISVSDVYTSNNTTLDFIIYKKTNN
Description: DHFR from T. gondii prepared as above was also directly compared to purified recombinant P. falciparum DHFR (pfDHFR) and purified recombinant human DHFR (hDHFR). The hDHFR was from pDFR plasmid. The enzyme was purified following ammonium sulfate precipitation, methotrexate:agarose affinity chromatography, and finally a Superdex 200 size exclusion column. The pfDHFR isolation methods were those reported previously,[44]. […] The same buffer as used in the other assays comparing T. gondii DHFR with DHFRs from rat liver P. carinii and M. avium intracellulare was used but the maximal activity, temperature, and length of observation were adjusted for assays on the specific plate reader. […] The reaction was setup at 23°C, the plate loaded, and the OD340 recorded at 20 second intervals for 10 minutes. The first 8 minutes were used to generate linear fit slopes in Excel. […] Results are expressed as the percent of control activity versus log concentration of inhibitor. Prism 5.0 was used to generate curves from 12 different concentrations of inhibitor using a non-linear fit method.

Pc DHFR = molecular target: T1, Pc DHFR (Pneumocystis carinii, UniProt P16184); experiment: Spectrophotometric DHFR assay, Pneumocystis carinii DHFR; assay type: biochemical; conditions: 37°C; (95% confidence limits); read-out: Pc DHFR IC50
T1 construct: made in house; host or cells: Escherichia coli
T1 sequence (P16184 1-206): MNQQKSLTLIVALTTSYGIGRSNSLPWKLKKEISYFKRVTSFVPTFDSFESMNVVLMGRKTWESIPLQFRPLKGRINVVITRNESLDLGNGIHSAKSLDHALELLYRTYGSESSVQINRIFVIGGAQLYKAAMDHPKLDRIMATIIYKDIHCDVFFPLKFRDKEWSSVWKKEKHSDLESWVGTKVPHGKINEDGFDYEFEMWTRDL
Description: DHFR from Pneumocystis carinii was produced as the recombinant enzyme expressed in Escherichia coli. […] DHFR from T. gondii was isolated directly from RH strain T. gondii grown in culture on Chinese hamster ovary cells lacking DHFR (CHO/dhfr^-, American Type Culture Collection 3952 CL). Organisms were introduced into a confluent monolayer and harvested when the mammalian cells were lysed. The 100,000× g supernate was stored in liquid nitrogen.
The spectrophotometric assay for DHFR was optimized for temperature and concentration of substrate and cofactor for each enzyme. The standard assay contained Na phosphate buffer pH 7.4 (40.7 mM), 2-mercaptoethanol (8.9 mM), NADPH (0.117 mM), dihydrofolic acid (0.09 mM), KCL (150 mM), and sufficient enzyme to produce a change in OD340 of 0.035/minute at 37°C. The reaction was continuously recorded for 3 minutes. […] The low background activity in the absence of dihydrofolic acid was subtracted from all rates.
(§1) DHFR was assayed with several concentrations of inhibitor to produce rates ranging from 1 to 90% of the uninhibited rate. At least three concentrations were required for calculation; most curves contained five concentrations.

Mav DHFR = molecular target: T2, Mav DHFR (Mycobacterium avium, UniProt O30463); experiment: Spectrophotometric DHFR assay, Mycobacterium avium-intracellulare DHFR; assay type: biochemical; conditions: 37°C; (95% confidence limits)
T2 construct: the bacteria were centrifuged, sonicated, and the 100,000 Xg supernate was stored under liquid nitrogen until assay; endogenous in cells; host or cells: M. avium-intracellulare clinical isolate (serovar 4), Indiana University School of Medicine
T2 sequence (O30463 1-181): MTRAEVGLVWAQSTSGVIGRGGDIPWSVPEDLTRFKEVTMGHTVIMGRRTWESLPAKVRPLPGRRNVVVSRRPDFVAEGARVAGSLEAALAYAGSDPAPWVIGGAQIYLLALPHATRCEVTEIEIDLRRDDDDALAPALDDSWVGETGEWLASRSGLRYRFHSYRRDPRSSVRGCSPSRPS
Description: Mycobacterium avium-intracellulare used in these studies was a clinical isolate (serovar 4) from Indiana University School of Medicine, Department of Pathology. The strain was maintained on Lowenstein-Jensen slants (Baxter Scientific) grown at room temperature. To produce enzyme, the organism was grown in Middlebrook 7H-9 liquid medium at 37°C to an OD660 of 0.5 to 0.7, which took several weeks. At harvest, the bacteria were centrifuged, sonicated, and the 100,000 Xg supernate was stored under liquid nitrogen until assay. These supernates contained both DHFR and dihydroopteroate synthetase activity.
The spectrophotometric assay for DHFR was optimized for temperature and concentration of substrate and cofactor for each enzyme. The standard assay contained Na phosphate buffer pH 7.4 (40.7 mM), 2-mercaptoethanol (8.9 mM), NADPH (0.117 mM), dihydrofolic acid (0.09 mM), KCL (150 mM), and sufficient enzyme to produce a change in OD340 of 0.035/minute at 37°C. The reaction was continuously recorded for 3 minutes. Activity under these conditions was linear with enzyme concentration over a 4-fold range. The low background activity in the absence of dihydrofolic acid was subtracted from all rates.
as §1

[1] = system: human foreskin fibroblasts (HFF); experiment: Toxicity for host cells, 3H thymidine incorporation by non-confluent HFF; assay type: cell-based; conditions: increasing concentrations, tested concomitantly with T. gondii
[2] = system: Tachyzoites of the RH strain of T. gondii; experiment: T. gondii tachyzoite growth in human foreskin fibroblasts, 3H uracil uptake and microscopy; assay type: cell-based; conditions: Toxoplasma gondii, Fibroblast, RH strain tachyzoites in HFF, 3H uracil uptake after four days in culture
Description: Tachyzoites of the RH strain of T. gondii were passaged in human foreskin fibroblasts (HFF). They were used to infect fibroblasts to determine antimicrobial effects of candidate compounds. Outcome was assessed with microscopy and uracil uptake after four days in culture as described,[12],[13]. Briefly, for testing of inhibitors in vitro against T. gondii tachyzoites, four-day old confluent cultures of human foreskin fibroblasts (HFF) were infected with 10^3 tachyzoites and cultured for 1 hour to allow parasite invasion. Inhibitor was added and cells cultured for 3 days. They were supplemented with ^3H uracil and incubation extended for a further day, whereupon uracil incorporation into cells and thus parasite growth were assessed by liquid scintillation counting,[12],[13]. Studies were performed with inhibitors as described in [8],[12],[13].
For in vitro studies, a stock solution of JPC-2067-B was initially dissolved in 100% dimethyl sulfoxide (DMSO) and then diluted in complete tissue culture medium (IMDM-C) [IMDM with NaHCO3 and 25 mM Hepes (Cambrex Bio Science, Walkersville, MD), 10% fetal bovine serum (Gibco, Grand Island, N.Y.), 1× antibiotic-antimycotic solution (Cellgro, Mediatech), and 2 mM L-glutamine (Gibco). Working concentrations of JPC-2067-B were made using IMDM-C. Concentrations measured ranged from 10 to 100 nM. […]

CC1(C)N=C(N)N=C(N)N1OCCCOc1ccc(OC(F)(F)F)cc1Cl [JPC-2067-B, 4,6-diamino-1,2-dihydro-2,2-dimethyl-1-(3′(2-chloro-, 4-trifluoromethoxyphenoxy)propyloxy)-1,3,5-triazine]
Plaques or growth of parasites after removal of compound (cidal effect) (T. gondii): No plaques or Toxoplasma were seen throughout 52 days of culture; also recorded: No plaques or growth of parasites were detected | IC50 (PfDHFR; recombinant, 23°C, (95% Confidence Intervals), read-out: PfDHFR IC50): 3.88 nM | IC50 (PfDHFR; text to Figure 5 and Table 2, read-out: IC50 for P. falciparum DHFR): 3.9 nM | IC50 (Pc DHFR): 3.93 nM | IC50 (Mav DHFR): 3.75 nM | Toxicity for host cells, uptake of tritiated thymidine by nonconfluent fibroblasts [1]: no toxic effect on host cells; also recorded: no toxicity | IC50 [2]: 20 nM | IC90 ([2]; read-out: IC90, T. gondii tachyzoites in tissue culture): 50 nM
